The target in one data set is T1, σ1-receptor (Cavia porcellus, UniProt Q60492).
T1 construct: guinea pig brains were homogenized; from tissue; host or cells: guinea pig brain membranes
Briefly: Sigma-1 receptor binding assay, [3H](+)-pentazocine, brain membranes. The note with it: guinea pig brain membranes; for inhibition at 0.1 µM: compound 10^−7 M; for inhibition at 0.1 µM / inhibition at 0.01 µM: [3H](+)-pentazocine 0.5 nM; for inhibition at 0.01 µM: compound 10^−8 M; for Ki: σ1, [3H](+)-pentazocine. On the procedure: Brain membrane preparation and binding assays for the σ1-receptor were performed as described (DeHaven-Hudkins et al., 1992) with some modifications. In brief, guinea pig brains were homogenized in 10 vols. (w/v) of Tris-HCl 50 mM 0.32 M sucrose, pH 7.4, with a Kinematica Polytron PT 3000 at 15000 r.p.m. for 30 s. The homogenate was centrifuged at 1000 g for 10 min at 4° C. and the supernatants collected and centrifuged again at 48000 g for 15 min at 4° C. The pellet was resuspended in 10 volumes of Tris-HCl buffer (50 mM, pH 7.4), incubated at 37° C. for 30 min, and centrifuged at 48000 g for 20 min at 4° C. Following this, the pellet was resuspended in fresh Tris-HCl buffer (50 mM, pH 7.4) and stored on ice until use.
Each assay tube contained 10 μL of [^3H](+)-pentazocine (final concentration of 0.5 nM), 900 μL of the tissue suspension to a final assay volume of 1 mL and a final tissue concentration of approximately 30 mg tissue net weight/mL. Non-specific binding was defined by addition of a final concentration of 1 μM haloperidol. All tubes were incubated at 37° C. for 150 min before termination of the reaction by rapid filtration over Schleicher & Schuell GF 3362 glass fibre filters [previously soaked in a solution of 0.5% polyethylenimine for at least 1 h]. Filters were then washed with four times with 4 mL of cold Tris-HCl buffer (50 mM, pH 7.4). Following addition of scintillation cocktail, the samples were allowed to equilibrate overnight. The amount of bound radioactivity was determined by liquid scintillation spectrometry using a Wallac Winspectral 1414 liquid scintillation counter. Protein concentrations were determined by the method of Lowry et al. (1951).

The subject of data set [1] is capsaicin-induced allodynia. Briefly: von Frey filaments in a model of capsaicin-induced allodynia. It is filed as in vivo. Particulars: percent analgesia compared to control, mice, mechanical stimulus (von Frey) after capsaicin. The procedure: In-Vivo-Experiments Using von Frey Filaments in a Model of […]-Induced Allodynia: This model is described in detail in the experimental part of WO 2006/010587 A1, examples 1 and 2, the description being included here by reference. Capsaicin is thereby injected into experimental animals to produce acute pain followed by allodynia. Briefly after habituation mice were first treated with the test-compound (or not in controls). Then capsaicin (1% DMSO) is injected into their paw resulting in developing pain in the effected paw. The effected paw is then treated with a mechanical stimulus and the latency time before the paw is withdrawn is measured.

T1 sequence (Q60492 whole entry): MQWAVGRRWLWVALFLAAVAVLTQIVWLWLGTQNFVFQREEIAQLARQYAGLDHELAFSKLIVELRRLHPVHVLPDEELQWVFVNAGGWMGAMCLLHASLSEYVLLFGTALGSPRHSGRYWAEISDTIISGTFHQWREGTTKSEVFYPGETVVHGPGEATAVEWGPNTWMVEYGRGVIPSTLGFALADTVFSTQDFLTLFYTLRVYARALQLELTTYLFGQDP

What is called melting point is the temperature of the solid-liquid transition. Turning to `CN(CCNc1ccn(-c2ccc(Cl)c(Cl)c2)n1)C1CCCCC1.O=C(O)C(=O)O`, the melting point was in the range of 114 to 116 °C.

For the compound `CN1CCN(CC(=O)Nc2ccn(-c3ccc(Cl)c(Cl)c3)n2)CC1.O=C(O)C(=O)O`, the melting point lay in the range of 213 to 217 °C.

Compound `CN1CCN(CCNc2ccn(-c3ccc(Cl)c(Cl)c3)n2)CC1.O=C(O)C(=O)O` came in with a melting point of 230 to 232 °C.

On to `Clc1ccc(-n2ccc(NCCN3CCCCCC3)n2)cc1Cl.O=C(O)C(=O)O`, for which the melting point was in the range of 157 to 159 °C.

Consider `CN(CC(=O)Nc1ccn(-c2ccc(Cl)c(Cl)c2)n1)Cc1ccccc1.O=C(O)C(=O)O`, for which the melting point was 206 to 209 °C.

Regarding `O=C(CN1CCOCC1)Nc1ccn(-c2ccc3ccccc3c2)n1.O=C(O)C(=O)O`, the melting point fell in the range of 213 to 217 °C.

`O=C(O)C(=O)O.c1ccc2cc(-n3ccc(NCCN4CCOCC4)n3)ccc2c1` returned a melting point of 148 to 153 °C.

As to `Cc1cc(SCCN2CCCC2)nn1-c1ccc(Cl)c(Cl)c1.O=C(O)C(=O)O`, the melting point is 144 to 151 °C.

Turning to `O=C(CN1CCOCC1)Nc1ccn(-c2cccc(Cl)c2)n1.O=C(O)C(=O)O`, the melting point lay in the range of 219 to 220 °C.

Take `Cc1cc(SCCN2CCCCC2)nn1-c1ccc(Cl)c(Cl)c1.O=C(O)C(=O)O`: the melting point was in the range of 162 to 164 °C.

In turn, `O=C(CN1CCCC1)Nc1ccn(C2CCCCC2)n1.O=C(O)C(=O)O` came in with a melting point of 127 to 130 °C.

Consider `Clc1cccc(-n2ccc(NCCN3CCOCC3)n2)c1.O=C(O)C(=O)O`, for which the melting point was in the range of 144 to 146 °C.

As to `O=C(CN1CCCCC1)Nc1ccn(C2CCCCC2)n1.O=C(O)C(=O)O`, the melting point fell in the range of 177 to 181 °C.

In general, inhibition refers to how much of the control response was suppressed. In general, Ki refers to the equilibrium dissociation constant of an inhibitor or competing ligand from its target. Read a low Ki as a stronger hold on the target. For `CCN(CC)CCNc1ccn(-c2ccc(Cl)c(Cl)c2)n1` [Example 1, 1-(3,4-dichlorophenyl)-N-(2-(diethylamino)ethyl)-1H-pyrazol-3-amine], on σ1-receptor, the inhibition at 0.1 µM came to 66.6%, the inhibition at 0.01 µM turned out to be 1.8% and the affinity corresponds to a Ki of 46.4 nM.

On σ1-receptor, `O=C(CN1CCOCC1)Nc1ccn(-c2ccc(Cl)c(Cl)c2)n1` [Example 2, N-(1-(3,4-dichlorophenyl)-1H-pyrazol-3-yl)-2-morpholinoacetamide] returned an inhibition at 0.1 µM of 37.8% and an inhibition at 0.01 µM of 25.9%.

Turning to `Clc1ccc(-n2ccc(NCCN3CCOCC3)n2)cc1Cl` [Example 3, 1-(3,4-dichlorophenyl)-N-(2-morpholinoethyl)-1H-pyrazol-3-amine], on σ1-receptor, the inhibition at 0.1 µM came to 78.9% and at 0.01 µM the inhibition was 54.3%.

`CCN(CC)CC(=O)Nc1ccn(-c2ccc(Cl)c(Cl)c2)n1` [Example 4, N-(1-(3,4-dichlorophenyl)-1H-pyrazol-3-yl)-2-(diethylamino)acetamide] registered a melting point of 69 to 74 °C. In data set [1], the “Analgesia (16 mg/kg), i.p. %” value is on record as 47%. At σ1-receptor, the inhibition at 0.1 µM stood at 77.3%, 0.01 µM produced 51.7% inhibition and the affinity corresponds to a Ki of 6.4 nM.

With `O=C(CN1CCCCC1)Nc1ccn(-c2ccc(Cl)c(Cl)c2)n1` [Example 5, N-[1-(3,4-dichlorophenyl)-1H-pyrazol-3-yl)-2-(piperidin-1-yl)acetamide], the melting point was in the range of 78 to 82 °C. Moreover, on σ1-receptor, the inhibition at 0.1 µM turned out to be 68.2% and 0.01 µM produced 46.1% inhibition.

For the compound `Clc1ccc(-n2ccc(NCCN3CCCCC3)n2)cc1Cl.O=C(O)C(=O)O` [Example 6, 1-(3,4-Dichlorophenyl)-N-(2-(piperidin-1-yl)ethyl)-1H-pyrazol-3-amine oxalate], the melting point was 168 to 172 °C. In addition, in data set [1], the “Analgesia (16 mg/kg), i.p. %” value was found to be 42%. Also, at σ1-receptor, the inhibition at 0.1 µM worked out at 88.3%, testing at 0.01 µM gave an inhibition of 53.6% and the inhibition constant (Ki) amounted to 7.1 nM.

In turn, `CN(CC(=O)Nc1ccn(-c2ccc(Cl)c(Cl)c2)n1)C1CCCCC1` [Example 11, 2-(cyclohexyl (methyl)amino)-N-(1-(3,4-dichlorophenyl)-1H-pyrazol-3-yl)acetamide] returned a melting point of 88 to 94 °C. At σ1-receptor, this compound yielded an inhibition at 0.1 µM of 91.8% and an inhibition at 0.01 µM of 68.8%.

`Clc1ccc(-n2ccc(NCCN3CCN(C4CCCCC4)CC3)n2)cc1Cl` [Example 14, N-(2-(4-cyclohexylpiperazin-1-yl)ethyl)-1-(3,4-dichlorophenyl)-1H-pyrazol-3-amine] returned a melting point of 115 to 119 °C. Moreover, on σ1-receptor, testing at 0.1 µM gave an inhibition of 100% and the inhibition at 0.01 µM is 72.1%.

The compound `O=C(CN1CCCCCC1)Nc1ccn(-c2ccc(Cl)c(Cl)c2)n1` [Example 28, 2-(azepan-1-yl)-N-(1-(3,4-dichlorophenyl)-1H-pyrazol-3-yl)acetamide] yielded a melting point of 99 to 102 °C.

As for `Cc1cc(SCCN2CCOCC2)nn1-c1ccc(Cl)c(Cl)c1.O=C(O)C(=O)O` [Example 68, 4-(2-(1-(3,4-dichlorophenyl)-5-methyl-1H-pyrazol-3-ylthio)ethyl) morpholine oxalate], the “Analgesia (16 mg/kg), i.p. %” value in data set [1] is reported as 21%. Further, at σ1-receptor, 0.1 µM produced 93.5% inhibition, the inhibition at 0.01 µM amounted to 91.2% and the affinity corresponds to a Ki of 23 ± 0.6 nM.

For the compound `CCN(CC)CCSc1cc(C)n(-c2ccc(Cl)c(Cl)c2)n1.O=C(O)C(=O)O` [Example 70, 2-(1-(3,4-dichlorophe-nyl)-5-methyl-1H-pyrazol-3-ylthio)-N,N-diethylethanamine oxalate], the melting point lay in the range of 184 to 188 °C. Moreover, at σ1-receptor, the inhibition at 0.1 µM worked out at 93.1% and 0.01 µM produced 34.6% inhibition.

The values are drawn from US8410159B2, “Imidazole compounds having pharmaceutical activity towards the sigma receptor” (Laboratories del Dr. Esteve, S.A., priority 2006, dated 2013).
